# Assays:
# [1] = test system: ink clearance, phagocytic activity in vivo; experiment: Ink clearance (phagocytosis in vivo); design: species or system mouse; details: In intraperitoneally 0.5, 5.0 and 50.0 mg/kg
# Experimental: 5. Estimation of phagocytic activity of peritoneal macrophages in mice, using JgG-opsonized sheep erythrocytes as the phagocytosis target /10/. Macrophages were attracted by 4-percent hydrolyzed starch solution. On the 3rd or 4th day, 0.5 ml of 5-percent sheep erythrocyte suspension were administered intraperitoneally. Following 60 minutes, exudate was removed. Non phagocytic sheep erythrocytes were subjected to lysis. Cell suspension was washed out. The preparation stained per Romanovsky-Gimze was determined for phagocyting cell percentage. To determine phagocytic index (PI1), the number of sheep erythroccytes captured was calculated spectrophotometrically /11/ by hemoglobin concentration using a calibration curve. Phagocytic index (P12) was determined again following 3 hours of incubation at 37° C. Phagocytosis completion index (PCI) was calculatd using the following formula: [formula] […] Blood taking completed, animals were killed and body weight, liver and spleen weight were measured. Optical density of hemolyzed blood determined spectrophometrically at 610 nm wavelenght, and the f (D) t curve was plotted. […] Phagocytosys constant (K) was calculated using the following formula: [formula] and then true phagocytosis index (α) was calculated using the following formula: [formula] […]
# peritoneal macrophages = experiment: Phagocytic activity of peritoneal macrophages (opsonized sheep erythrocytes); format: in vivo, mouse; details: for Stimulation degree (phagocytosis completion index increase): F1 mice
# Experimental: 5. Estimation of phagocytic activity of peritoneal macrophages in mice, using JgG-opsonized sheep erythrocytes as the phagocytosis target /10/. Macrophages were attracted by 4-percent hydrolyzed starch solution. On the 3rd or 4th day, 0.5 ml of 5-percent sheep erythrocyte suspension were administered intraperitoneally. Following 60 minutes, exudate was removed. Non phagocytic sheep erythrocytes were subjected to lysis. Cell suspension was washed out. The preparation stained per Romanovsky-Gimze was determined for phagocyting cell percentage. To determine phagocytic index (PI1), the number of sheep erythroccytes captured was calculated spectrophotometrically /11/ by hemoglobin concentration using a calibration curve. Phagocytic index (P12) was determined again following 3 hours of incubation at 37° C. Phagocytosis completion index (PCI) was calculatd using the following formula: [formula] […] Then, for 15 minutes blood was taken from orbital sinus (0.020 ml) every 3 minutes and introduced into 1 ml of 3-percent acetic acid. Blood taking completed, animals were killed and body weight, liver and spleen weight were measured. Optical density of hemolyzed blood determined spectrophometrically at 610 nm wavelenght, and the f (D) t curve was plotted. Points lg (0) (zero time) and lg(10) (on the curve) were located. Phagocytosys constant (K) was calculated using the following formula: [formula] and then true phagocytosis index (α) was calculated using the following formula: [formula] 7. Complement activity determination using the titration technique employing rabbit erythrocytes treated with hyperimmune antiserum of guinea pig /12/ for direct activation route and employing rabbit erythrocytes treated with potassium iodide solution /13/ for alternative activation route. Activity was expressed in units 50-percent lysis per ml of serum (CH50).
# The effect of In given at doses of 0.5, 5.0 and 50.0 mg/kg on phagocytosis index was studied in hybrid line F1 (CBA×C57B1/6) mice, with he drug administered intraperitonreallly 30 minutes before injection of the phagocytosis target, i.e. sheep erythrocytes.
# [2] = test system: hemagglutinin titers for sheep erythrocytes in mouse serum; experiment: Hemagglutinin (HA) titer for sheep erythrocytes in mouse serum; format: in vivo
# [3] = test system: antibody-forming cells in mouse spleen (sheep erythrocytes as antigen); experiment: Antibody-forming cell (AFC) count in mouse spleen, local hemolysis reaction (humoral immune response); format: in vivo; details: for AFC stimulation degree: C57B1/6; for AFC count per 10^6 nucleated spleen cells: C57B1/6 males 20-22 g; for AFC stimulating effect: 50.0 mg/kg, low responsive line mice
# [4] = test system: graft-versus-host reaction (GVHR); experiment: Graft-versus-host reaction (GVHR); format: in vivo, mouse; details: inosiplex 50.0 mg/kg
# Experimental: (§1) In was dissolved in physiological solution and administered intraperitonerally at single doses together with antigen (sheep erytrcytes). Physiological solution was used as a control.
# (§2) 3. DSR deermination using intravenoous immunization of mice with sheep erythrocytes administered at a dose of 2×10^5 cells. A resolution dose (1×10^8 cells in 0.04 ml of physiological solution) was injected in a hind footpad on the 5th day following immunization. Local inflammatory reaction was accounted for 24 hours later by the difference of mass between experimental (Re) and control (Rc) footpads. Reaction index (RI) was calculated for each mouse using the following formula: [formula] 4. GVHR determination. GVHR was induced by subcutaneous administration of 2×10^6 lymph node cells of […] (CBA) into right hind footpads of line F1 (CBA×C57B1/6) mice. Syngeneic lymphocytes were administered into left footpads. Cell count was determined in 5 ml of homogenate of left (control) and right (experiment) lymph nodes.
# [5] = test system: delayed skin reaction (DSR) to sheep erythrocytes; experiment: Delayed skin reaction (DSR); format: in vivo, mouse; details: inosiplex 0.5, 5.0 and 50.0 mg/kg; mice of two lines; listed as In
# Experimental: Experimental animals were intraperitoneally administered doses of 10.0 and 100.0 mg/kg in 0.1 ml in parallel to antigen administration; similar doses were given per os for 5 days before antigen administration.
# as §1, §2
# [6] = third dose column (printed 5.0 mg/kg), 2 × 10^7 sheep erythrocytes
compound,measurement,setting,value
CC(=O)Nc1ccc(C(=O)O)cc1.CC(=O)Nc1ccc(C(=O)O)cc1.CC(=O)Nc1ccc(C(=O)O)cc1.CC(O)CN(C)C.CC(O)CN(C)C.CC(O)CN(C)C.O=c1[nH]cnc2c1ncn2[C@@H]1O[C@H](CO)[C@@H](O)[C@H]1O [Inosiplex],blood clearence rate (in words),[1],no effect on blood clearence rate
same,capturing intensity of inert ink particles (in words),[1],no changes in capturing intensity of inert ink particles
same,Stimulation degree (phagocytosis completion index increase),"peritoneal macrophages; 5.0 mg/kg, intraperitoneal",39%
same,Stimulation degree (phagocytosis completion index increase),"peritoneal macrophages; 50.0 mg/kg, intraperitoneal",76%
same,phagocytosis and digesting ability of macrophages (in words),peritoneal macrophages; common to inosplex and Rp,Stimulation of phagocytosis and digesting ability of macrophages
same,phagocytosis index (in words),"peritoneal macrophages; inosiplex 0.5 mg/kg, F1, intraperitoneal",no stimulation effect
same,stimulation of phagocytosis completion,peritoneal macrophages; intraperitoneal 5.0 and 50.0 mg/kg,1.4-1.7 times
same,"HA titer, 14th day after immunisation","[2]; 250.0 mg/kg, CBA males 20-22 g, n = 8, suboptimum sheep erythrocyte dose, P< 0.02",8.5 log2
same,stimulation of hemagglutinin production (fold),"[2]; 250.0 mg/kg, line CBA",as much as two times
same,stimulation of hemagglutinin production (log2 of hemagglutinin titer),"[2]; 250.0 mg/kg, line CBA",1 log2 of hemagglutinin titer
same,effect on hemagglutinin titer (in words),"[2]; 0.5, 5.0 and 25.0 mg/kg, line CBA, 7th and 14th day, suboptimum immunisation",no stimulating effect
same,AFC stimulation degree,"[3]; 0.5 mg/kg, 10^8 sheep erythrocytes (optimum)",90%
same,AFC count per 10^6 nucleated spleen cells,"[3]; 0.5 mg/kg, 2 × 10^7 sheep erythrocytes",52(63'44)
same,AFC count per 10^6 nucleated spleen cells,"[3]; 0.5 mg/kg, 10^8 sheep erythrocytes, p < 0.05",158(186'134)
same,AFC stimulation degree,"[3]; 5.0 mg/kg, 2 × 10^7 sheep erythrocytes (suboptimum)",38%
same,AFC stimulation degree,"[3]; 5.0 mg/kg, 10^8 sheep erythrocytes (optimum)",82%
same,AFC count per 10^6 nucleated spleen cells,"[3]; 5.0 mg/kg, 2 × 10^7 sheep erythrocytes",117(149'98)
same,AFC count per 10^6 nucleated spleen cells,"[3]; 5.0 mg/kg, 10^8 sheep erythrocytes, p < 0.05",151(169'134)
same,AFC stimulating effect,[3]; optimum immunisation,139%
same,AFC stimulating effect,[3]; suboptimum immunisation,32%
same,stimulation of humoral immune response,"[3]; 5.0 and 50.0 mg/kg, animals low responsive to antigen",1.3-1.8 fold
same,antibody-forming cells in the spleen (in words),[3]; common to inosplex and Rp,Stimulation of forming antibody-forming cells in the spleen
same,humoral immune reaction (in words),"[3]; strong-replied animals, optimal dose of antigen",Suppress of humoral immune reaction
same,AFC stimulation degree,[3]; [6],32%
same,AFC stimulation degree,"[3]; third dose column (printed 5.0 mg/kg), 10^8 sheep erythrocytes",139%
same,AFC count per 10^6 nucleated spleen cells,[3]; [6],112(141'89)
same,AFC count per 10^6 nucleated spleen cells,"[3]; third dose column (printed 5.0 mg/kg), 10^8 sheep erythrocytes, p < 0.01",199(245'162)
same,humoral immune reaction (in words),"[3]; weak-replied animals, and strong-replied mice with suboptimum dose of antigen",Stimulation of humoral immune reaction
same,GVHR (in words),[4],slight inhibitory effect
same,DSR intensity (in words),[5],no changes in the reaction intensity
